Source: publication PMC9989931, “Membrane‐acting biomimetic peptoids against visceral leishmaniasis” (FEBS Open Bio, 2023)
“And” between values parts separate entries of the source, which are not always exact repeats. Equal entries are not always repeated. “Also recorded” adds a separate entry of the source. Square brackets hold non-standard residues; d marks the D form. Peptide text beside a SMILES is read from it. Nspe(4-Br) = C[C@H](NCC(=O)O)c1ccc(Br)cc1; N(tridecyl)Gly = CCCCCCCCCCCCCNCC(=O)O; Nspe = C[C@H](NCC(=O)O)c1ccccc1; Nlys = NCCCCNCC(=O)O

How the values were obtained:
[1] = tested on: Leishmania donovani promastigotes (Bob strain); assay type: cell-based; conditions: 4 h; for Reduction of promastigote viability: at 3 μM, MTT, vs untreated cells
Method: Promastigotes of bob L. donovani were harvested in the log phase, and parasite inhibition was determined through 3‐(4,5‐dimethylthiazol‐2‐yl)‐2,5‐diphenyl‐tetrazolium bromide (MTT) methods using twofold dilution techniques. Briefly, promastigote density of 2 × 10^6 cells was taken, and different peptoid dilutions were added (0.187–3 μM) in a total volume of 100 μL. Percentage parasite viability was evaluated at 4 h at 25 °C using MTT (Sigma‐Aldrich). Parasite viability rate (%) = [OD of test sample/OD of untreated sample] × 100.
All experiments were carried out in triplicate and repeated at least three times independently (biological replicates), and the figures shown are representative of these experiments. IC50 was calculated using GRAPHPAD PRISM 6.0 software. The data were analyzed using Student's t‐test for comparison of two groups, and data values were expressed as mean ± standard deviation (SD). Significant differences were determined and designated with asterisks as follows: *P < 0.05; **P < 0.01; ***P < 0.001; and ****P < 0.0001.
Fig. 1 Antileishmanial activity of peptoids against Leishmania donovani promastigotes. Early‐logarithmic‐phase promastigotes of L. donovani bob strain were treated with different peptoids at different concentrations (0–3 μM) for 4 h. Negative control was considered 100% of cell viability (untreated) and positive control (Triton X treated). Cellular viability was assessed by MTT assay, and the IC50 values were calculated using GRAPHPAD PRISM 6.0. Error bars represent SD N = 3 and n = 3.

[2] = tested on: Leishmania donovani intracellular amastigotes; test: Intracellular amastigote clearance in infected RAW 264.7 macrophages (Giemsa staining, microscopy); assay type: cell-based; design: key to Effect on intracellular amastigotes: *: Good; **: Better; ***: Best; conditions: 10 μM peptoid, infected RAW 264.7 cells; for Effect on intracellular amastigotes by Giemsa staining (number, size, count): vs untreated control, 24 h or 4 h; for Effect on intracellular amastigotes: Giemsa staining, grade
Method: To evaluate the inhibitory effect of different peptoids on intracellular amastigotes, RAW 264.7 cells were infected with logarithmic phase promastigotes. Briefly, RAW 264.7 cells (10^5 cells/well) were seeded in 24‐well plates with round sterile coverslips and allowed to adhere to the coverslip for 24 h at 37 °C at 5% CO2 DMEM media supplemented with 10% FBS. Adherent macrophages were infected with L. donovani promastigotes at 1 : 10 (macrophage: promastigotes) for 6 h. Co‐infected cells were washed with PBS three times and incubated for a further 24 h for infection establishment. After 24 h, media were removed and again washed with FBS‐free DMEM followed by peptoid treatment. Ten μM of different peptoids were added to the co‐infected cells and incubated for 4 h at 37 °C at 5% CO2. After 4 h, peptoid‐treated co‐infected cells were washed with PBS, fixed with 100% methanol, and stained with diluted Giemsa stain (1 : 10) (HiMedia, Mumbai, India). The parasite clearance status of peptoids was determined by counting the number of the parasites using the Leica LAS core microscope system by counting 100 cells per coverslip.
Fig. 2 Giemsa staining of intracellular amastigotes in macrophage 264.7 cells after treatment with different peptoids at 10 μM concentrations. Untreated amastigotes (A), sample treated with TM 1 (B), TM 2 (C), TM 3 (D), TM 4 (E), TM 5 (F), TM 7 (G), TM 9 (H), and TM 10 (I). Red arrow points to the amastigotes form of Leishmania donovani parasite. Scale bar represents […].

RAW 264.7 cells = test: Cytotoxicity against RAW 264.7 cells (MTT); assay type: cell-based, murine; conditions: for Host cell viability: 20 µM
Method: The cytotoxicity of different peptoids against RAW 264.7 cells was assessed by the MTT method following a published protocol. Briefly, murine macrophages were seeded in a 96‐well plate using DMEM supplemented with 10% FBS maintained at 37 °C and 5% CO2 for 24 h. Next, different concentrations of peptoids (5–80 μM) were added and incubated for 24 h followed by the addition of MTT for 2 h and solubilization of formazene crystals with DMSO addition. Percentage cell viability was calculated relative to the peptoid untreated sample.
Fig. 6 Percentage of living RAW 264.7 cells after incubation with different concentrations of peptoids. RAW 264.7 macrophage cells were incubated with peptoid for 24 h. […] The working concentration of 10 μM of peptoids caused only 50% or lower cytotoxicity in RAW 264.7 cells. Cell viability was determined by MTT assay, and data based on three experiments are represented by mean ± SD.

Row | Structure (SMILES) | Reduction of promastigote viability [1] | Effect on intracellular amastigotes by Giemsa staining (number, size, count) [2] | Effect on intracellular amastigotes [2] | Reduction in host cell viability (RAW 264.7 cells; RAW 264.7 cells, 10 μM, 24 h, MTT) | IC50 [1] | Host cell viability (RAW 264.7 cells)
1 | C[C@@H](c1ccccc1)N(CC(N)=O)C(=O)CN(C(=O)CN(CCCCN)C(=O)CN(C(=O)CN(C(=O)CN(CCCCN)C(=O)CN(C(=O)CN(C(=O)CN(CCCCN)C(=O)CN(C(=O)CN(C(=O)CNCCCCN)[C@@H](C)c1ccccc1)[C@@H](C)c1ccccc1)[C@@H](C)c1ccccc1)[C@@H](C)c1ccccc1)[C@@H](C)c1ccccc1)[C@@H](C)c1ccccc1)[C@@H](C)c1ccccc1 [TM1] (H-[Nlys][Nspe][Nspe][Nlys][Nspe][Nspe][Nlys][Nspe][Nspe][Nlys][Nspe][Nspe]-NH2) | ≥ 50% | reduction in number and size of amastigotes; also recorded: reduces the amastigote count | *** | ~ 40% and 40% |  | 
2 | C[C@@H](c1ccc(Br)cc1)N(CC(N)=O)C(=O)CN(C(=O)CN(CCCCN)C(=O)CN(C(=O)CN(C(=O)CNCCCCN)[C@@H](C)c1ccccc1)[C@@H](C)c1ccc(Br)cc1)[C@@H](C)c1ccccc1 [TM2] (H-[Nlys][Nspe][Nspe(4-Br)][Nlys][Nspe][Nspe(4-Br)]-NH2) | ≥ 50% |  | * |  | 1400 nM | more than 50%
3 | C[C@@H](c1ccc(Br)cc1)N(CC(N)=O)C(=O)CN(C(=O)CN(CCCCN)C(=O)CN(C(=O)CN(C(=O)CNCCCCN)[C@@H](C)c1ccccc1)[C@@H](C)c1ccccc1)[C@@H](C)c1ccccc1 [TM3] (H-[Nlys][Nspe][Nspe][Nlys][Nspe][Nspe(4-Br)]-NH2) |  |  | * |  | 4600 nM | no toxicity
4 | C[C@@H](c1ccccc1)N(CC(N)=O)C(=O)CN(C(=O)CN(CCCCN)C(=O)CN(C(=O)CN(C(=O)CNCCCCN)[C@@H](C)c1ccccc1)[C@@H](C)c1ccccc1)[C@@H](C)c1ccccc1 [TM7] (H-[Nlys][Nspe][Nspe][Nlys][Nspe][Nspe]-NH2) | ≥ 50% | reduction in number and size of amastigotes; also recorded: significantly reduced their count | ** |  | 3030 nM | no toxicity
5 | CCCCCCCCCCCCCNCC(=O)N(CCCCN)CC(=O)N(CC(=O)N(CC(=O)N(CCCCN)CC(=O)N(CC(=O)N(CC(N)=O)[C@@H](C)c1ccc(Br)cc1)[C@@H](C)c1ccccc1)[C@@H](C)c1ccc(Br)cc1)[C@@H](C)c1ccccc1 [TM10] (H-[N(tridecyl)Gly][Nlys][Nspe][Nspe(4-Br)][Nlys][Nspe][Nspe(4-Br)]-NH2) |  | reduction in number and size of amastigotes; also recorded: significantly reduced their count | *** |  | 1540 nM | 
